Test results reported in patent publication US7732460B2 (priority 2005, dated 2010).

Test system: panel of Gram-positive organisms (Staphylococcus aureus, Streptococcus pneumoniae, Streptococcus pyogenes, Enterococcus faecalis, Enterococcus faecium) and …
Format: cell-based, Gram-positive and Gram-negative bacteria
Settings: against all of the strains representing the organisms listed; serial two-fold dilutions 0.016 to 16 mcg/mL

With `COc1cnc2ccc(=O)n3c2c1[C@](O)(CN1CCC(NCc2cc4c(nn2)OCCO4)CC1)C3` [Example 66] the MIC values was over 16 µg/mL.
